Assays:
[1] = biological target: T1, Aurora-A (Mus musculus, UniProt P97477); assay: Aurora-A kinase screening assay (33P-ATP FlashPlate); format: biochemical; conditions: 10 μM ATP, 1 hr at 30° C;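 note: His-tagged mouse Aurora-A phosphorylating a biotinylated peptide captured on streptavidin plates, read as 33P uptake by scintillation counting, 1% DMSO, inhibition scaled between per-plate maximum and minimum signals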
T1 construct: polyhistidine (N)
T1 sequence (P97477 1-395): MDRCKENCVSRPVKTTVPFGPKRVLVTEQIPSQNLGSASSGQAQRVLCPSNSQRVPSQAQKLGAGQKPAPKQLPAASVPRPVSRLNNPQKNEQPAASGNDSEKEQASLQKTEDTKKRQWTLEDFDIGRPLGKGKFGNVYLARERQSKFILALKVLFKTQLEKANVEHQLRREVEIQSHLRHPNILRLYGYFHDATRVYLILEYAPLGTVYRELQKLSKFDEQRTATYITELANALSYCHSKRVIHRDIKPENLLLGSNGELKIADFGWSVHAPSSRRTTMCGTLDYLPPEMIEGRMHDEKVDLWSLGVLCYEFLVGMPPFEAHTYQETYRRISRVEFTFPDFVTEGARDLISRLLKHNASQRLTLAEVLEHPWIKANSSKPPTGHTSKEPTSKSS

[2] = test system: HCT-116 colon carcinoma; assay: Cell Proliferation Inhibition Assay (14C-thymidine incorporation), HCT-116; format: cell-based; conditions: Homo sapiens, HCT-116, HCT-116 cells;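 note: proliferation measured as methyl 14C-thymidine uptake into new DNA, counted in 96-well scintillating microplates, compared with DMSO-only control wells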
[3] = biological target: T2, CDK1 (Homo sapiens, UniProt P06493); assay: CDK-1 kinase screening assay (33P-ATP FlashPlate); format: biochemical; conditions: human CDK1 with cyclin B; 10 μM ATP; 1 hr at 30° C
T2 construct: purchased New England Biolabs, Beverly, Mass; 6020; host or cells: insect cells
T2 sequence (P06493 whole entry): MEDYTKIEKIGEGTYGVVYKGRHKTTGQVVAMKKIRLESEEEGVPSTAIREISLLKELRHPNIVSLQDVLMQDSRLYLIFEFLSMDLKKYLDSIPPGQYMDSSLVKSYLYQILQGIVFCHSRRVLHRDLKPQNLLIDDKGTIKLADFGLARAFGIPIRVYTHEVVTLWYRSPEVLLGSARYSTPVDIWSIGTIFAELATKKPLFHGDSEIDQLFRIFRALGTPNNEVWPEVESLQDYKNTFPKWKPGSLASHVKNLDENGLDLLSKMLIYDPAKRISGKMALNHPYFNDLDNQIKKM
T2 sequence (P14635 whole entry partner): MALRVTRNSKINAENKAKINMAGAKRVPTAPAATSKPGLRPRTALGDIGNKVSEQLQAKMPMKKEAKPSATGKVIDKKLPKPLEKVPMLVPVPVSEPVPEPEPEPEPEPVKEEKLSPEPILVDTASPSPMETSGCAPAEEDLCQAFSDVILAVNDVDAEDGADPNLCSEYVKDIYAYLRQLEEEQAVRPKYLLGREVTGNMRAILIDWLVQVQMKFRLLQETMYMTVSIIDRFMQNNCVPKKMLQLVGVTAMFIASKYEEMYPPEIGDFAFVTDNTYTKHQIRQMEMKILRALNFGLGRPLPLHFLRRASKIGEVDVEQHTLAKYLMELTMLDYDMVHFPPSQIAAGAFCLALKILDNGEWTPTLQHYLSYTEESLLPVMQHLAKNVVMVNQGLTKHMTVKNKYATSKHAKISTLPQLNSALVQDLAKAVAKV

[4] = biological target: T3, RET (Homo sapiens, UniProt P07949); assay: RET kinase screening assay (33P-ATP FlashPlate); format: biochemical; conditions: human RET kinase domain; 10 μM ATP; 1 hr at 30° C;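 note: biotinylated peptide substrate captured on streptavidin FlashPlate, 33P phosphate transfer read by scintillation counting, 1% DMSO, lower incorporation means inhibition, percent relative to per-plate maximum and minimum signals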
T3 construct: polyhistidine (N)
T3 sequence (P07949 658-1114 limits assumed): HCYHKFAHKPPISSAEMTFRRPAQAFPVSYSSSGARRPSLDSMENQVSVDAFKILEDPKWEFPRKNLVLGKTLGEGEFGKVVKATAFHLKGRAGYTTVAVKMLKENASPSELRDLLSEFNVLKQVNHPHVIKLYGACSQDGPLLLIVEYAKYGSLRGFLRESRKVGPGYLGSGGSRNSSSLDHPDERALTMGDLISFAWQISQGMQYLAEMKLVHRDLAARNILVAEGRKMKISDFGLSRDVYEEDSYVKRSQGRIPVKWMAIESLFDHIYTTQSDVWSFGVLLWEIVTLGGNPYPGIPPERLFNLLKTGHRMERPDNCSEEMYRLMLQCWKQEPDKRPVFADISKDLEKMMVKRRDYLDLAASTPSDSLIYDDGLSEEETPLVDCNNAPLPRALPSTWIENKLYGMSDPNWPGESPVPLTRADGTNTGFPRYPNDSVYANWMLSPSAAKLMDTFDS

[5] = biological target: T4, HER2 (Homo sapiens, UniProt P04626); assay: HER2 kinase screening assay (33P-ATP FlashPlate); format: biochemical; conditions: GST-HIS6 HER-2 aa 679 to 1255; 10 μM ATP; 1 hr at 30° C;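 note: Biotin-poly(GT) 4:1 peptide captured on streptavidin FlashPlate, 33P transfer from γ-ATP read by scintillation counting, lower incorporation means inhibition, 1% DMSO final, 100 µL reaction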
T4 construct: GST (Glutathione-S-Transferase) (N); HIS6 (N); thrombin cleavage site (N); purchased Proqinase, Freiburg, Germany
T4 sequence (P04626 679-1255): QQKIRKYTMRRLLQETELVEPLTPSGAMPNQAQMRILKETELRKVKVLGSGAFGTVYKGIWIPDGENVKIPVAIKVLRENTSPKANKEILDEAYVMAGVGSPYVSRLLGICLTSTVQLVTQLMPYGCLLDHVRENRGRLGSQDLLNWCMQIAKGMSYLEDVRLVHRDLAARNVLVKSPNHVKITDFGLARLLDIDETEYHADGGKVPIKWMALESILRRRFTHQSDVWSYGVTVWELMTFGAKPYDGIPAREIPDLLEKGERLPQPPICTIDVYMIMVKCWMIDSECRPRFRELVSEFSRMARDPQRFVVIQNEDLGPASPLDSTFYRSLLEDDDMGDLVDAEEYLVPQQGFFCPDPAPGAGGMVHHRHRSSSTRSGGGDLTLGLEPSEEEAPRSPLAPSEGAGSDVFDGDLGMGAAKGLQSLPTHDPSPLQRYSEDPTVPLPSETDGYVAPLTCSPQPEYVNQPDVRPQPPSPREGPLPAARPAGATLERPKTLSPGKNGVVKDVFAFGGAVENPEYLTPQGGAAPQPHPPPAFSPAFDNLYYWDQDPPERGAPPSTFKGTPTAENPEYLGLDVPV

[6] = biological target: T5, VEGF-R2 (Rattus norvegicus, UniProt O08775); assay: VEGF-R2 kinase screening assay (33P-ATP FlashPlate); format: biochemical; conditions: rat VEGF-R2 kinase domain; 10 μM ATP; 1 hr at 30° C;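 note: Read-out is ³³P incorporation from ³³P-γ-ATP into biotinylated peptide substrate captured on streptavidin FlashPlate, counted by scintillation, 1% DMSO final, inhibition scaled between per-plate maximum and minimum signals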
T5 construct: polyhistidine (N)
T5 sequence (O08775 786-1343): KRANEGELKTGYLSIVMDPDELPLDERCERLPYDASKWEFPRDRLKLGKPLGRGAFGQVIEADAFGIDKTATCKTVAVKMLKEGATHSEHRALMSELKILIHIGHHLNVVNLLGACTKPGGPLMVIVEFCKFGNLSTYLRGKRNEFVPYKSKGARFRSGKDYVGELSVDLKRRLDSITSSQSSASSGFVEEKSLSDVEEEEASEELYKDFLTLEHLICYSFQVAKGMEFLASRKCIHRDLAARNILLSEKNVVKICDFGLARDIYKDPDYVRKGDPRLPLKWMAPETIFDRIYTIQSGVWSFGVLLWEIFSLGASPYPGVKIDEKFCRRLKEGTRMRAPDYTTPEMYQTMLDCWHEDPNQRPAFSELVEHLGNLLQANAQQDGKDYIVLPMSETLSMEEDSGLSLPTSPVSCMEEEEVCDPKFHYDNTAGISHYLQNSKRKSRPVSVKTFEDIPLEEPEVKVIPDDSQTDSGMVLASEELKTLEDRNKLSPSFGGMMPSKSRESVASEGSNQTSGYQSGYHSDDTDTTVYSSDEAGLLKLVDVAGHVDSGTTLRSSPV

[7] = test system: HeLa cervical adenocarcinoma; assay: Cell Proliferation Inhibition Assay (14C-thymidine incorporation), HeLa; format: cell-based; conditions: Homo sapiens, HeLa, HeLa cells;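 note: test compound in DMSO added to cells seeded in scintillating 96-well plates, DMSO-only wells as control, uptake of methyl 14C-thymidine into new DNA counted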
[8] = test system: A375 malignant melanoma; assay: Cell Proliferation Inhibition Assay (14C-thymidine incorporation), A375; format: cell-based; conditions: Homo sapiens, A-375, A375 cells;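 note: proliferation measured by radiolabelled thymidine uptake into new DNA, counted in scintillating 96-well plates, compound-treated wells compared with DMSO-only control wells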

Structure (SMILES) | IC50 [1] | IC50 [2] | IC50 [3] | IC50 [4] | IC50 [5] | IC50 [6] | IC50 [7] | IC50 [8]
CNCc1cncc(-c2cnc3[nH]nc(-c4nc5c(COC)cccc5[nH]4)c3c2)c1C [Cpd 62, {5-[3-(4-methoxymethyl-1H-benzoimidazol-2-yl)-1H-pyrazolo[3,4-b]pyridin-5-yl]-4-methyl-pyridin-3-ylmethyl}-methyl-amine] | 1750 nM | 229 nM | 68.1 nM | ~10000 nM | > 100000 nM | 2790 nM | 1180 nM | 62.3 nM
O=C(c1cccc2[nH]c(-c3n[nH]c4ncc(-c5cncc6ccccc56)cc34)nc12)N1CCOCC1 [Cpd 24, [2-(5-isoquinolin-4-yl-1H-pyrazolo[3,4-b]pyridin-3-yl)-1H-benzoimidazole-4-yl]-morpholin-4-yl-methanone] | 2790 nM | 743 nM | 42 nM | ~100000 nM | > 10000 nM | 4620 nM | 460 nM | 490 nM
COCc1cccc2[nH]c(-c3n[nH]c4ncc(-c5ccc(N6CCN(C(=O)OC(C)(C)C)CC6)nc5)cc34)nc12 [Cpd 67, 4-{5-[3-(4-methoxymethyl-1H-benzoimidazol-2-yl)-1H-pyrazolo[3,4-b]pyridin-5-yl]-pyridin-2-yl}-piperazine-1-carboxylic acid tert-butyl ester] | > 100000 nM | 24.5 nM | > 10000 nM | > 100000 nM | > 100000 nM | > 10000 nM | 1980 nM | 10.9 nM
COCCOCc1cccc2[nH]c(-c3n[nH]c4ncc(-c5cncc6ccccc56)cc34)nc12 [Cpd 14, 4-{3-[4-(2-methoxy-ethoxymethyl)-1H-benzoimidazol-2-yl]-1H-pyrazolo[3,4-b]pyridin-5-yl}-isoquinoline] | > 1000 nM | 312 nM | 72.1 nM | ~100000 nM | > 100000 nM | 4570 nM | 1000 nM | 649 nM
FC1(F)Oc2cc3nc(-c4n[nH]c5ncc(-c6cccnc6)cc45)[nH]c3cc2O1 [Cpd 98, 2,2-difluoro-6-(5-pyridin-3-yl-1H-pyrazolo[3,4-b]pyridin-3-yl)-5H-[1,3]dioxolo[4′,5′:4,5]benzo[1,2-d]imidazole] | > 10000 nM | 943 nM | 6.6 nM | > 100000 nM | > 100000 nM | > 100 nM | 1610 nM | 1080 nM
CN1CCC(NC(=O)c2cccc3[nH]c(-c4n[nH]c5ncc(-c6cncc7ccccc67)cc45)nc23)CC1 [Cpd 28, 2-(5-isoquinolin-4-yl-1H-pyrazolo[3,4-b]pyridin-3-yl)-1H-benzoimidazole-4-carboxylic acid (1-methyl-piperidin-4-yl)-amide] | > 10000 nM | 4990 nM | 724 nM | > 100000 nM | > 10000 nM | > 100000 nM | 26900 nM | 5620 nM
CCCCNCc1cncc(-c2cnc3[nH]nc(-c4nc5c(COC)cccc5[nH]4)c3c2)c1 [Cpd 79, butyl-{5-[3-(4-methoxymethyl-1H-benzoimidazol-2-yl)-1H-pyrazolo[3,4-b]pyridin-5-yl]-pyridin-3-ylmethyl}-amine] | 2450 nM | 218 nM | 6.81 nM | > 10000 nM | > 10000 nM | ~1000 nM | 417 nM | 343 nM

The remaining lines, values ahead:

IC50 [1] | IC50 [2] | IC50 [3] | IC50 [4] | IC50 [5] | IC50 [6] | IC50 [7] | IC50 [8] | Structure (SMILES)
3620 nM | 109 nM | 12.8 nM | > 100000 nM | > 100000 nM | ~1000 nM | 134 nM | 140 nM | CC(C)NCc1cccc2[nH]c(-c3n[nH]c4ncc(-c5cncc6ccccc56)cc34)nc12 [Cpd 13, isopropyl-[2-(5-isoquinolin-4-yl-1H-pyrazolo[3,4-b]pyridin-3-yl)-1H-benzoimidazol-4-ylmethyl]-amine]
12100 nM | 890 nM | 244 nM | ~100000 nM | > 10000 nM | > 10000 nM | 1160 nM | 1210 nM | CN(C)CCN(C)C(=O)c1cccc2[nH]c(-c3n[nH]c4ncc(-c5cncc6ccccc56)cc34)nc12 [Cpd 26, 2-(5-isoquinolin-4-yl-1H-pyrazolo[3,4-b]pyridin-3-yl)-1H-benzoimidazole-4-carboxylic acid (2-dimethylamino-ethyl)-methyl-amide]
10900 nM | 3170 nM | 1630 nM | > 100000 nM | > 10000 nM | 6930 nM | 6580 nM | 2760 nM | CN1CCN(C(=O)c2cccc3[nH]c(-c4n[nH]c5ncc(-c6cncc7ccccc67)cc45)nc23)CC1 [Cpd 23, [2-(5-isoquinolin-4-yl-1H-pyrazolo[3,4-b]pyridin-3-yl)-1H-benzoimidazole-4-yl]-(4-methyl-piperazin-1-yl)-methanone]
321 nM | 99.2 nM | 283 nM | > 10000 nM | > 10000 nM | 4110 nM | 1830 nM | 219 nM | COCc1cccc2[nH]c(-c3n[nH]c4ncc(-c5cncc(CN(C)C)c5C)cc34)nc12 [Cpd 61, {5-[3-(4-methoxymethyl-1H-benzoimidazol-2-yl)-1H-pyrazolo[3,4-b]pyridin-5-yl]-4-methyl-pyridin-3-ylmethyl}-dimethyl-amine]
> 1000 nM | 20.4 nM | > 100000 nM | > 100000 nM | > 100000 nM | 121 nM | 1080 nM | 4.4 nM | COCc1cccc2[nH]c(-c3n[nH]c4ncc(-c5ccc(N6CCOCC6)nc5)cc34)nc12 [Cpd 66, 3-(4-methoxymethyl-1H-benzoimidazol-2-yl)-5-(6-morpholin-4-yl-pyridin-3-yl)-1H-pyrazolo[3,4-b]pyridine]
> 1000 nM | 237 nM | 65.5 nM | > 1000 nM | > 100000 nM | 60.7 nM | 632 nM | 910 nM | CCOCCOCc1cccc2[nH]c(-c3n[nH]c4ncc(-c5cncc6ccccc56)cc34)nc12 [Cpd 16, 4-{3-[4-(2-ethoxy-ethoxymethyl)-1H-benzoimidazol-2-yl]-1H-pyrazolo[3,4-b]pyridin-5-yl}-isoquinoline]
> 1000 nM | 43.4 nM | 546 nM | > 10000 nM | > 100000 nM | 436 nM | 1430 nM | 212 nM | COCc1cccc2[nH]c(-c3n[nH]c4ncc(-c5ccc(S(N)(=O)=O)cc5)cc34)nc12 [Cpd 36, 4-[3-(4-methoxymethyl-1H-benzoimidazol-2-yl)-1H-pyrazolo[3,4-b]pyridin-5-yl]benzenesulfonamide]
975 nM | 259 nM | 77.6 nM | > 10000 nM | 89.4 nM | 952 nM | 354 nM | 255 nM | CCN(CC)Cc1cccc2[nH]c(-c3n[nH]c4ncc(Br)cc34)nc12 [Cpd 6, [2-(5-bromo-1H-pyrazolo[3,4-b]pyridin-3-yl)-1H-benzoimidazol-4-ylmethyl]-diethyl-amine]
~100000 nM | 120 nM | > 10000 nM | > 100000 nM | > 100000 nM | 319 nM | 9960 nM | 76.3 nM | COCc1cccc2[nH]c(-c3n[nH]c4ncc(-c5ccc(OC)nc5)cc34)nc12 [Cpd 63, 3-(4-methoxymethyl-1H-benzoimidazol-2-yl)-5-(6-methoxy-pyridin-3-yl)-1H-pyrazolo[3,4-b]pyridine]

From US7541367B2, “3-benzoimidazolyl-pyrazolopyridines useful in treating kinase disorders” (Janssen Pharmaceutica, N.V., priority 2005, dated 2009)
